From paper PMC2754045 (Biochemistry, 2009)

Columns and labels:
[1] = system: mTR-GCCG; details: for Activity lower than that of the wild type enzyme: Sec to Cys mutant versus WT, pH 7.0
[2] = system: mTR-GCCG; assay type: biochemical, mouse; details: mTR-GCCG versus mTR-GCUG

## O=C(O)CCCC[C@@H]1CCSS1 [Lipoic Acid, lipoic acid]
[1]; versus full-length WT enzyme
  Km increase in the Cys2 mutant: 2.3 fold

## CC(=O)OC[C@H]1O[C@@H]([S-])[C@H](OC(C)=O)[C@@H](OC(C)=O)[C@@H]1OC(C)=O.CCP(CC)CC.[Au+] [auranofin]
[2]
  IC50 increase on mutation of Sec to Cys: 4 fold

## OC[C@H]1O[C@H]([S-])[C@H](O)[C@@H](O)[C@@H]1O.[Au+] [aurothioglucose]
[2]
  IC50 increase on mutation of Sec to Cys: 1.7 fold

## O=[Se]([O-])[O-].[Na+].[Na+] [selenite, sodium selenite]
[1]
  Activity lower than that of the wild type enzyme: ~ 2 fold

## N[C@@H](C[Se][Se]C[C@H](N)C(=O)O)C(=O)O [selenocystine]
[1]
  Activity lower than that of the wild type enzyme: 3.7 fold
